The record followed here is patent publication EP4806898A1, “HETEROARYL DERIVATIVE COMPOUND AND USE THEREOF” (Voronoi Inc., priority 2023, dated 2025).

Bounds are passed on as bounds.

The target in one experiment is T1, recombinant USP1 protein (Homo sapiens, UniProt O94782, DEL125-138/DEL229-408/DEL608-737).
T1 sequence (O94782 with tags, fused parts or gaps DEL125-138/DEL229-408/DEL608-737): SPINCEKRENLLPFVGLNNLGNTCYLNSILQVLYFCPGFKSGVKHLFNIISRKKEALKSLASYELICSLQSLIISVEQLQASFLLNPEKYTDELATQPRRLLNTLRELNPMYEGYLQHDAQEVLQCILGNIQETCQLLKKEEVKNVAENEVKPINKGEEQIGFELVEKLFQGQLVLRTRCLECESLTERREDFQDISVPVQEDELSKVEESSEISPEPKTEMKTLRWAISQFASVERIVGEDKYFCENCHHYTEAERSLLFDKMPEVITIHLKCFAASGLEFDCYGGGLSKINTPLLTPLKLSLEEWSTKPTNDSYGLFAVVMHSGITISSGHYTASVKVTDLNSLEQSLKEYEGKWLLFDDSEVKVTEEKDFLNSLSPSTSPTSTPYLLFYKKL
As to the kind of experiment: Binding affinity to recombinant USP1 protein by differential scanning fluorimetry. To be noted: compound 100 µM; 0.03 mg/mL USP1 (Δ1-66, Δ125-138, Δ229-408, Δ608-737); Tm with compound minus Tm with DMSO; read-out: ΔTm (°C). On the procedure:
<Experimental Example 1> Confirmation and evaluation of the binding affinity to recombinant USP1 protein
To evaluate the binding affinity of the compounds of the present invention to the USP1 protein, the following experiment was performed using differential scanning fluorimetry.
Recombinant 0.03 mg/mL USP1 (Δ1-66, Δ125-138, Δ229-408, Δ608-737) protein, dye reagent, and buffer solution (50 mM Tris-HCl pH 8.0, 150 mM NaCl, 2% glycerol, 1 mM DTT) were mixed and 19 µL of the mixture was dispensed into a well plate (MicroAmp Fast 96-Well Reaction plate, 0.1 mL). Each compound was injected at a final concentration of 100 µM in an amount of 1 µL, and the plate containing a total of 20 µL was sealed with MicroAmp Optical Adhesive Film. The melting temperature (Tm) of the protein in each well was measured using a real-time PCR (RT-PCR) device. The difference between the Tm of the sample containing the compound and the Tm containing DMSO is referred to as delta Tm (ΔTm), where a larger ΔTm value indicates stronger binding affinity. The degree of temperature at which the protein is modified in the presence of the compound compared to DMSO was calculated according to Equation 1 below: [formula]

For the next experiment, the system named is UWB1.289 cells. As to the kind of experiment: Cell proliferation inhibitory activity in BRCA1/2-mutant or HRD-positive cells (Cell Titer-Glo). The conditions noted are these: UWB1289; UWB1.289 cells, 144 hours after compound treatment, Cell Titer-Glo, 1.5 nM to 10 µM; read-out: GI50 UWB1.289 BRCA1 mut. In kind it is cell-based. As to the method:
<Experimental Example 2> Evaluation of Cell Proliferation Inhibitory Activity in BRCA1/2-Mutant or HRD-Positive Cells
To evaluate the inhibitory activity of the compound according to the present invention on the proliferation of BRCA1/2 mutants or homologous recombination deficient (HRD) positive cell lines, the following experiments were performed. UWB1.289 cells were cultured in medium (50% MEBM + 50% RPMI1640), and 1,000 cells were seeded in a well plate (black clear bottom 96-well plate, Corning) 16 to 24 hours prior to compound treatment. The compounds were diluted in dimethyl sulfoxide (3-fold serial dilution starting at 10 µM, for a total of 10 concentrations) and injected at 1 µl per well, resulting a final concentration range of […] to 10 µM. Measurements of live cells were performed by a reaction in a 37 °C and CO2 incubator for 144 hours after compound treatment. The cells were incubated for 10 minutes in an incubator using Cell Titer-Glo luminescent cell-viability reagent (Promega), and luminescence intensity thereof was measured using a reader (SynergyNeo2, Biotek). GI50 values were calculated using the GraphPad Prism version 8.4.3 (GraphPad software Inc., San Diego) program.

As for `[2H]C([2H])([2H])Oc1ncnc(C2CC2)c1-c1ncc2cc(C(=O)NC)n(Cc3ccc(-c4nc(C(F)(F)F)cn4C(C)C)cc3)c2n1` [Example 3, 2-(4-cyclopropyl-6-(methoxy-d3)pyrimidin-5-yl)-7-(4-(1-isopropyl-4-(trifluoromethyl)-1H-imidazol-2-yl)benzyl)-N-methyl-7H-pyrrolo[2,3-d]pyrimidine-6-carboxamide], on recombinant USP1 protein, the ΔTm at 100 µM is > 5 °C. Moreover, the GI50 in the experiment on UWB1.289 cells is < 0.1 µM.

Turning to `CCNC(=O)c1cc2cnc(-c3c(OC)ncnc3C3CC3)nc2n1Cc1ccc(-c2nc(C(F)(F)F)cn2C(C)C)cc1` [Example 4, 2-(4-cyclopropyl-6-methoxypyrimidin-5-yl)-N-ethyl-7-(4-(1-isopropyl-4-(trifluoromethyl)-1H-imidazol-2-yl)benzyl)-7H-pyrrolo[2,3-d]pyrimidine-6-carboxamide], the ΔTm at 100 µM on recombinant USP1 protein is > 5 °C. The 50% growth inhibitory concentration (GI50) in the experiment on UWB1.289 cells was < 0.1 µM.

For the compound `COc1ncnc(C2CC2)c1-c1ncc2cc(C(=O)N(C)C)n(Cc3ccc(-c4nc(C(F)(F)F)cn4C(C)C)cc3)c2n1` [Example 5, 2-(4-cyclopropyl-6-methoxypyrimidin-5-yl)-7-(4-(1-isopropyl-4-(trifluoromethyl)-1H-imidazol-2-yl)benzyl)-N,N-dimethyl-7H-pyrrolo[2,3-d]pyrimidine-6-carboxamide], the ΔTm at 100 µM on recombinant USP1 protein was > 5 °C. The GI50 in the experiment on UWB1.289 cells is < 0.1 µM.

As to `COc1ncnc(C2CC2)c1-c1ncc2cc(C(=O)NCCN3CCOCC3)n(Cc3ccc(-c4nc(C(F)(F)F)cn4C(C)C)cc3)c2n1` [Example 6, 2-(4-cyclopropyl-6-methoxypyrimidin-5-yl)-7-(4-(1-isopropyl-4-(trifluoromethyl)-1H-imidazol-2-yl)benzyl)-N-(2-morpholinoethyl)-7H-pyrrolo[2,3-d]pyrimidine-6-carboxamide], at recombinant USP1 protein, the ΔTm at 100 µM is > 5 °C. In addition, the GI50 in the experiment with UWB1.289 cells was < 0.1 µM.

As to `COc1ncnc(C2CC2)c1-c1ncc2cc(C(=O)NCC3(CO)CC3)n(Cc3ccc(-c4nc(C(F)(F)F)cn4C(C)C)cc3)c2n1` [Example 7, 2-(4-cyclopropyl-6-methoxypyrimidin-5-yl)-N-((1-(hydroxymethyl)cyclopropyl)methyl)-7-(4-(1-isopropyl-4-(trifluoromethyl)-1H-imidazol-2-yl)benzyl)-7H-pyrrolo[2,3-d]pyrimidine-6-carboxamide], the ΔTm at 100 µM at recombinant USP1 protein is > 5 °C. Also, the 50% growth inhibitory concentration (GI50) in the experiment with UWB1.289 cells was < 0.1 µM.

Take `[2H]C([2H])([2H])NC(=O)c1cc2cnc(-c3c(OC)ncnc3C3CC3)nc2n1Cc1ccc(-c2nc(C(F)(F)F)cn2C(C)C)cc1` [Example 9, 2-(4-cyclopropyl-6-methoxypyrimidin-5-yl)-7-(4-(1-isopropyl-4-(trifluoromethyl)-1H-imidazol-2-yl)benzyl)-N-(methyl-d3)-7H-pyrrolo[2,3-d]pyrimidine-6-carboxamide]: the ΔTm at 100 µM on recombinant USP1 protein is > 5 °C. The GI50 with UWB1.289 cells is 0.1 to 0.5 µM.

In the case of `COc1ncnc(C2CC2)c1-c1ncc2cc(C(=O)NC3CC3(F)F)n(Cc3ccc(-c4nc(C(F)(F)F)cn4C(C)C)cc3)c2n1` (centres unmarked) [Example 10, 2-(4-cyclopropyl-6-methoxypyrimidin-5-yl)-N-(2,2-difluorocyclopropyl)-7-(4-(1-isopropyl-4-(trifluoromethyl)-1H-imidazol-2-yl)benzyl)-7H-pyrrolo[2,3-d]pyrimidine-6-carboxamide], the ΔTm at 100 µM at recombinant USP1 protein was > 5 °C. In addition, in the experiment with UWB1.289 cells, the GI50 was < 0.1 µM.

Consider `COc1ncnc(C2CC2)c1-c1ncc2cc(C(=O)NC3CC3)n(Cc3ccc(-c4nc(C(F)(F)F)cn4C(C)C)cc3)c2n1` [Example 11, N-cyclopropyl-2-(4-cyclopropyl-6-methoxypyrimidin-5-yl)-7-(4-(1-isopropyl-4-(trifluoromethyl)-1H-imidazol-2-yl)benzyl)-7H-pyrrolo[2,3-d]pyrimidine-6-carboxamide], for which, on recombinant USP1 protein, the ΔTm at 100 µM is > 5 °C. Moreover, the GI50 with UWB1.289 cells was < 0.1 µM.

As to `COc1ncnc(C2CC2)c1-c1ncc2cc(C(=O)NCCN(C)C)n(Cc3ccc(-c4nc(C(F)(F)F)cn4C(C)C)cc3)c2n1` [Example 12, 2-(4-cyclopropyl-6-methoxypyrimidin-5-yl)-N-(2-(dimethylamino)ethyl)-7-(4-(1-isopropyl-4-(trifluoromethyl)-1H-imidazol-2-yl)benzyl)-7H-pyrrolo[2,3-d]pyrimidine-6-carboxamide], the thermal shift (ΔTm) at 100 µM on recombinant USP1 protein is > 5 °C. The concentration for 50% growth inhibition (GI50) with UWB1.289 cells is 0.1 to 0.5 µM.

On to `COc1ncnc(C2CC2)c1-c1ncc2cc(C(=O)NC3COC3)n(Cc3ccc(-c4nc(C(F)(F)F)cn4C(C)C)cc3)c2n1` [Example 13, 2-(4-cyclopropyl-6-methoxypyrimidin-5-yl)-7-(4-(1-isopropyl-4-(trifluoromethyl)-1H-imidazol-2-yl)benzyl) -N-(oxetan-3-yl)-7H-pyrrolo[2,3-d]pyrimidine-6-carboxamide], for which the ΔTm at 100 µM on recombinant USP1 protein is > 5 °C. Further, the GI50 with UWB1.289 cells is < 0.1 µM.

Consider `COc1ncnc(C2CC2)c1-c1ncc2cc(C(=O)N3CCC(N4CCOCC4)CC3)n(Cc3ccc(-c4nc(C(F)(F)F)cn4C(C)C)cc3)c2n1` [Example 14, (2-(4-cyclopropyl-6-methoxypyrimid in-5-yl)-7-(4-(1-isopropyl-4-(trifluoromethyl)-1H-imidazol-2-yl)benzyl)-7H-pyrrolo[2,3-d]pyrimidin-6-yl) (4-morpholinopipe ridin-1-yl)methanone], for which the ΔTm at 100 µM on recombinant USP1 protein was > 5 °C. In addition, the GI50 with UWB1.289 cells is < 0.1 µM.

As to `COc1ncnc(C2CC2)c1-c1ncc2cc(C(=O)NC3CCC3)n(Cc3ccc(-c4nc(C(F)(F)F)cn4C(C)C)cc3)c2n1` [Example 15, N-cyclobutyl-2-(4-cyclopropyl-6-methoxypyrimidin-5-yl)-7-(4-(1-isopropyl-4-(trifluoromethyl)-1H-imidazol-2-yl)benzyl)-7H-pyrrolo[2,3-d]pyrimidine-6-carboxamide], the ΔTm at 100 µM at recombinant USP1 protein was > 5 °C. Moreover, the GI50 in the experiment on UWB1.289 cells is < 0.1 µM.

`COc1ncnc(C2CC2)c1-c1ncc2cc(C(=O)Nc3ccccc3)n(Cc3ccc(-c4nc(C(F)(F)F)cn4C(C)C)cc3)c2n1` [Example 17, 2-(4-cyclopropyl-6-methoxypyrimidin-5-yl)-7-(4-(1-isopropyl-4-(trifluoromethyl)-1H-imidazol-2-yl)benzyl)-N-phenyl-7H-pyrrolo[2,3-d]pyrimidine-6-carboxamide]: the ΔTm at 100 µM at recombinant USP1 protein is > 5 °C. Besides, the GI50 in the experiment on UWB1.289 cells was < 0.1 µM.

On to `COc1ncnc(C2CC2)c1-c1ncc2cc(C(=O)N3CCC3)n(Cc3ccc(-c4nc(C(F)(F)F)cn4C(C)C)cc3)c2n1` [Example 18, azetidin-1-yl(2-(4-cyclopropyl-6-methoxypyrimidin-5-yl)-7-(4-(1-isopropyl-4-(trifluoromethyl)-1H-imidazol-2-yl)benzyl)-7H-pyrrolo[2,3-d]pyrimidin-6-yl)methanone], for which, on recombinant USP1 protein, the ΔTm at 100 µM is > 5 °C. Besides, the GI50 with UWB1.289 cells was < 0.1 µM.

Take `COc1ncnc(C2CC2)c1-c1ncc2cc(C(=O)NCC3CCC3)n(Cc3ccc(-c4nc(C(F)(F)F)cn4C(C)C)cc3)c2n1` [Example 19, N-(cyclobutylmethyl)-2-(4-cyclopropyl-6-methoxypyrimidin-5-yl)-7-(4-(1-isopropyl-4-(trifluoromethyl)-1H-imidazol-2-yl)benzyl)-7H-pyrrolo[2,3-d]pyrimidine-6-carboxamide]: the ΔTm at 100 µM on recombinant USP1 protein was > 5 °C. Also, the GI50 in the experiment with UWB1.289 cells is < 0.1 µM.

Consider `COc1ncnc(C2CC2)c1-c1ncc2cc(C(=O)NCC3(C)CC(F)(F)C3)n(Cc3ccc(-c4nc(C(F)(F)F)cn4C(C)C)cc3)c2n1` [Example 20, 2-(4-cyclopropyl-6-methoxypyrimidin-5-yl)-N-((3,3-difluoro-1-methylcyclobutyl)methyl)-7-(4-(1-isopropyl-4-(trifluoromethyl)-1H-imidazol-2-yl)benzyl)-7H-pyrrolo[2,3-d]pyrimidine-6-carboxamide], for which, at recombinant USP1 protein, the ΔTm at 100 µM is > 5 °C. Also, the concentration for 50% growth inhibition (GI50) with UWB1.289 cells fell in the range of 0.1 to 0.5 µM.
